From patent US8486885B2, “β-arrestin effectors and compositions and methods of use thereof” (Trevena, Inc., priority 2008, dated 2013)
Non-standard residues stand in square brackets, D forms with d. Residues, ends and D or L forms follow the SMILES beside them. Sar = CNCC(=O)O

How the values were obtained:
Format in all cases: cell-based
[1] = biological target: T1, rat angiotensin 2 type 1 receptor (rat AT1aR) (Rattus norvegicus, UniProt P25095); assay: IP1 accumulation assay (IP-One Tb), rat AT1aR; settings: cells expressing rat AT1aR
T1 construct: expressed in transfected cells
T1 sequence (P25095 1-359): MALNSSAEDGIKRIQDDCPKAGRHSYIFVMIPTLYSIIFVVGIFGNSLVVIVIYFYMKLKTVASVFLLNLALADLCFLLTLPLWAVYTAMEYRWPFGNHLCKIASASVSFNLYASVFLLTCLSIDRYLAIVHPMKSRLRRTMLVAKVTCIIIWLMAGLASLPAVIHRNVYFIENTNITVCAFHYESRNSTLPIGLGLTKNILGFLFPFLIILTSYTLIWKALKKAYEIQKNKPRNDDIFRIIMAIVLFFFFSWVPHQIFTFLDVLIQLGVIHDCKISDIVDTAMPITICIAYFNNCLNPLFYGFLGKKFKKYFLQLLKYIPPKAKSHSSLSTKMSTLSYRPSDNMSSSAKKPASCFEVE
Description: (§1) A secondary measure of G protein coupling efficacy was also performed. IP3 is generated by activation of phospholipase C by Gα-q. IP3 is degraded to IP1, which can be forced to accumulate in cells by blocking degradation with lithium chloride. Thus we measured accumulation of IP1 to determine ligand efficacy for G protein activation.
(§2) IP1 accumulation generated by human and rat angiotensin 2 type 1 receptor (human AT1R and rat AT1aR, respectively) was measured with IP-One Tb kits purchased from Cisbio and used per the manufacturer's instructions. Clonal stably transfected cell lines expressing human AT1TR or rat AT1aR were used for all experiments.
(§3) For assays, 4,000 cells were seeded per well in 384-well small-volume microplates in volumes of 20 uL and allowed to grow overnight at 37° C. in 5% CO2. Cell growth media was then replaced with stimulation buffer supplied by Cisbio containing 50 mM lithium chloride. Peptides TRV-120,001 through TRV-120,035 were dissolved in deionized water to a concentration of 1 mM. For agonist detection, peptides were then further diluted in stimulation buffer to add peptide to the cells to reach final concentrations ranging from 10 uM to 1 pM. […] Following addition of peptides, cells were incubated at 37° C. in 5% CO2 for 30 minutes and then lysed with detection reagents added per manufacturer's instructions.

[2] = biological target: T2, human angiotensin 2 type 1 receptor (human AT1R) (Homo sapiens, UniProt P30556); assay: IP1 accumulation assay (IP-One Tb), human AT1R; settings: cells expressing human AT1R
T2 construct: expressed in transfected cells
T2 sequence (P30556 1-359): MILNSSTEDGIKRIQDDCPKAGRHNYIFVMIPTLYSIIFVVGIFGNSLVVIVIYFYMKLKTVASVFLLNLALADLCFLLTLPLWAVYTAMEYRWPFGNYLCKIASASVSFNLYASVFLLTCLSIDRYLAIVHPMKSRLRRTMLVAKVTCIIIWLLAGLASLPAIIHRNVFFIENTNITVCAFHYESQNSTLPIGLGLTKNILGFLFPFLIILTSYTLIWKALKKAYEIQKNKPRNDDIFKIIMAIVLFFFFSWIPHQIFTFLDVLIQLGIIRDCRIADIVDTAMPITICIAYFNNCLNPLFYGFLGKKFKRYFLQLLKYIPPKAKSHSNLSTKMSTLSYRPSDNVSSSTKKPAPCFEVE
Description: as §1, §2, §3

[3] = biological target: rat angiotensin 2 type 1 receptor (rat AT1aR) (Rattus norvegicus, UniProt P25095); assay: PathHunter β-arrestin-2 recruitment assay, rat AT1aR; settings: PathHunter β-arrestin HEK293 cells; for EC50: read-out: rat AT1aR b-arrestin2 EC50
Description: (§4) The proximal event in β-arrestin function mediated by GPCRs is recruitment to receptors following ligand binding and receptor phosphorylation by GRK's. Thus, the measure of β-arrestin recruitment was used to determine ligand efficacy for β-arrestin function.
(§5) B-arrestin-2 recruitment to the human and rat angiotensin 2 type 1 receptor (human AT1R and rat AT1aR, respectively) was measured with the PathHunter™ β-arrestin assay (DiscoveRx Corporation, Fremont Calif.). Cells, plasmid(s), and detection reagent(s) were purchased from DiscoveRx, and assays were performed per manufacturer's instructions. Human AT1R and rat AT1aR were cloned into the pCMV-ProLink vector, verified by sequencing, and transfected into PathHunter β-arrestin HEK293 cells. Stably transfected clonal cell lines were selected with Hygromycin and G418. These clonal cell lines were used for all experiments.
(§6) For assays, 25,000 cells were seeded per well in 96-well microplates in volumes of 90 μL and allowed to grow overnight at 37° C. in 5% CO2. Peptides of the invention were dissolved in deionized water to a concentration of 1 mM. Peptides were then further diluted in assay buffer (Hank's balanced salt solution with 20 mM HEPES) to add peptide to the cells to reach final concentrations ranging from 10 μM to 1 pM. Cells were then incubated for 60 minutes at 37° C. in 5% CO2, followed by addition of 50 μL of PathHunter Detection Reagent to each well. The microplates were then incubated at room temperature for 60 minutes, and then luminescence was measured using a NOVOstar microplate reader purchased from BMG Labtech. B-arrestin-2 recruitment to receptors was measured as relative luminescence intensity expressed in arbitrary units.
Target sequence in this assay (P32121 whole entry partner, one chain of several): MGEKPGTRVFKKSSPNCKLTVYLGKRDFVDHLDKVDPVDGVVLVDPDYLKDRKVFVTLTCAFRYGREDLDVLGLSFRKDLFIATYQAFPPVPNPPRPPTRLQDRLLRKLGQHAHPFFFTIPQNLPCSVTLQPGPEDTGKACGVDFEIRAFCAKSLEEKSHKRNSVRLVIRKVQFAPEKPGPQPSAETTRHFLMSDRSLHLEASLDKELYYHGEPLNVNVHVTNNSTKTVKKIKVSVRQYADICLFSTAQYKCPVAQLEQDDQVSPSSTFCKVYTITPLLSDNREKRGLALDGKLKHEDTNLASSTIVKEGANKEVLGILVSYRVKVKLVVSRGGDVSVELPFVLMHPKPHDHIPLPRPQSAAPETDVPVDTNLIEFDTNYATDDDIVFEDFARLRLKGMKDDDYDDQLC

[4] = biological target: human angiotensin 2 type 1 receptor (human AT1R) (Homo sapiens, UniProt P30556); assay: PathHunter β-arrestin-2 recruitment assay, human AT1R; settings: PathHunter β-arrestin HEK293 cells; for EC50: read-out: human AT1R b-arrestin2 EC50
Description: as §4, §5, §6
Target sequence in this assay (P32121 whole entry partner, one chain of several): as above

Row | SMILES | rat AT1aR IP One EC50 (M) [1] | human AT1R IP One EC50 (M) [2] | rat AT1aR b-arrestin2 Max (%) [3] | EC50 [3] | human AT1R b-arrestin2 Max (%) [4] | EC50 [4] | rat AT1aR IP One Max (%) [1] | EC50 [1] | human AT1R IP One Max (%) [2]
1 | CC[C@H](C)[C@H](NC(=O)[C@H](Cc1ccc(O)cc1)NC(=O)[C@@H](NC(=O)[C@H](CCCNC(=N)N)NC(=O)CNC)C(C)C)C(=O)N[C@@H](CCCCN)C(=O)N1CCC[C@H]1C(=O)N[C@H](C)C(=O)O [SEQ ID NO:50, Sar-Arg-Val-Tyr-Ile-Lys-Pro-D-Ala-OH] (H-[Sar]RVYIKP[dA]-OH; N-terminus assumed) | Inactive | inactive | 85.6% | 270 nM | 56.8% | 680 nM | – | – | –
2 | CC[C@H](C)[C@H](NC(=O)[C@H](Cc1ccc(O)cc1)NC(=O)[C@@H](NC(=O)[C@H](CCCNC(=N)N)NC(=O)CNC)C(C)C)C(=O)N[C@@H](Cc1c[nH]cn1)C(=O)N1CCC[C@@H]1C(N)=O [SEQ ID NO:51, Sar-Arg-Val-Tyr-Ile-His-D-Pro-NH2] | Inactive | inactive | 5.8% | – | 20.2% | 330 nM | – | – | –
3 | CNCC(=O)N[C@@H](CCCNC(=N)N)C(=O)N[C@H](C(=O)N[C@@H](Cc1ccc(O)cc1)C(=O)N[C@@H](Cc1ccc(O)cc1)C(=O)N[C@@H](Cc1c[nH]cn1)C(=O)N1CCC[C@H]1C(=O)O)C(C)C [SEQ ID NO:52, Sar-Arg-Val-Tyr-Tyr-His-Pro-OH] | – | inactive | 83.8% | – | 45.9% | 1400 nM | 8.0% | – | –
4 | CNCC(=O)N[C@@H](CCCNC(=N)N)C(=O)N[C@H](C(=O)N[C@@H](Cc1ccc(O)cc1)C(=O)N[C@H](C)C(=O)N[C@@H](Cc1c[nH]cn1)C(=O)N1CCC[C@H]1C(N)=O)C(C)C [SEQ ID NO:53, Sar-Arg-Val-Tyr-D-Ala-His-Pro-NH2] | Inactive | inactive | 12.2% | – | 33.6% | 1600 nM | – | – | –
5 | CNCC(=O)N[C@@H](CCCNC(=N)N)C(=O)N[C@H](C(=O)N[C@@H](Cc1ccc(O)cc1)C(=O)N[C@H](C(=O)N[C@@H](Cc1c[nH]cn1)C(=O)N1CCC[C@H]1C(=O)O)C(C)C)C(C)C [SEQ ID NO:54, Sar-Arg-Val-Tyr-Val-His-Pro-OH] | Inactive | inactive | 83.0% | – | 58.6% | – | – | – | –
6 | CNCC(=O)N[C@@H](CCCNC(=N)N)C(=O)N[C@H](C(=O)N[C@@H](Cc1ccc(O)cc1)C(=O)N[C@H](C(=O)N[C@@H](Cc1c[nH]cn1)C(N)=O)C(C)C)C(C)C [SEQ ID NO:55, Sar-Arg-Val-Tyr-Val-His-NH2] (H-[Sar]RVYVH-NH2; N-terminus assumed) | – | – | 95.6% | – | 92.7% | – | 98.8% | 6.8 nM | 97.6%
7 | CC[C@H](C)[C@H](NC(=O)[C@H](Cc1ccc(O)cc1)NC(=O)[C@@H](NC(=O)[C@H](CCCNC(=N)N)NC(=O)[C@@H](N)CC(=O)O)C(C)C)C(=O)N[C@@H](Cc1c[nH]cn1)C(=O)N1CCC[C@H]1C(=O)NCC(=O)O [SEQ ID NO:56] (H-DRVYIHPG-OH; N-terminus assumed) | – | – | 98.5% | 160 nM | 104.4% | – | 98.4% | – | 96.5%
